From PubChem BioAssay AID1963972 (Molecular Pharmacology Branch, DTP, NCI, 2024)
pIC50: −log10 of the molar value.

Tested on: 945468-187-T-J2-PDC spheroids viability
Experiment: Anticancer human tumor 945468-187-T-J2-PDC patient-derived rectal carcinoma cell line growth inhibition [PI3K]
Details: spheroids with HUVEC and MSC; for pIC50: curve of first compound; for viability, T/C: stronger effect = lower value
Summary of the method: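 Tumor cells were combined with HUVEC and MSCs into spheroids, then dosed with PI3K-inhibitor combinations over half-log ranges capped near clinical Cmax or 10 microM.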

[1] = second compound 0.00316 µM, first compound 0.0316 µM
[2] = second compound 0.00316 µM, first compound 0.1 µM
[3] = second compound 0.00316 µM, first compound 0.316 µM
[4] = second compound 0.00316 µM, first compound 1 µM
[5] = second compound 0.00316 µM, first compound 3.16 µM
[6] = second compound 0.00316 µM, first compound 10 µM
[7] = second compound 0.01 µM, first compound 0.0316 µM
[8] = second compound 0.01 µM, first compound 0.1 µM
[9] = second compound 0.01 µM, first compound 0.316 µM
[10] = second compound 0.01 µM, first compound 1 µM
[11] = second compound 0.01 µM, first compound 3.16 µM
[12] = second compound 0.01 µM, first compound 10 µM
[13] = second compound 0.0316 µM, first compound 0.0316 µM
[14] = second compound 0.0316 µM, first compound 0.1 µM
[15] = second compound 0.0316 µM, first compound 0.316 µM
[16] = second compound 0.0316 µM, first compound 1 µM
[17] = second compound 0.0316 µM, first compound 3.16 µM
[18] = second compound 0.0316 µM, first compound 10 µM
[19] = second compound 0.1 µM, first compound 0.0316 µM
[20] = second compound 0.1 µM, first compound 0.1 µM
[21] = second compound 0.1 µM, first compound 0.316 µM
[22] = second compound 0.1 µM, first compound 1 µM
[23] = second compound 0.1 µM, first compound 3.16 µM
[24] = second compound 0.1 µM, first compound 10 µM
[25] = second compound 0.316 µM, first compound 0.0316 µM
[26] = second compound 0.316 µM, first compound 0.1 µM
[27] = second compound 0.316 µM, first compound 0.316 µM
[28] = second compound 0.316 µM, first compound 1 µM
[29] = second compound 0.316 µM, first compound 3.16 µM
[30] = second compound 0.316 µM, first compound 10 µM
[31] = second compound 1 µM, first compound 0.0316 µM
[32] = second compound 1 µM, first compound 0.1 µM
[33] = second compound 1 µM, first compound 0.316 µM
[34] = second compound 1 µM, first compound 1 µM
[35] = second compound 1 µM, first compound 3.16 µM
[36] = second compound 1 µM, first compound 10 µM
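Note: spheroids exposed to compounds for seven days before reading.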

CC1(C)CCC(CN2CCN(c3ccc(C(=O)NS(=O)(=O)c4ccc(NCC5CCOCC5)c([N+](=O)[O-])c4)c(Oc4cnc5[nH]ccc5c4)c3)CC2)=C(c2ccc(Cl)cc2)C1 + CC(Nc1ccc2c(c1)OCCn1cc(N3C(=O)OCC3C(F)F)nc1-2)C(N)=O
pIC50 (second compound 0.00316 µM): 5.10
pIC50 (second compound 0.01 µM): < 5.00
pIC50 (second compound 0.0316 µM): 5.12
pIC50 (second compound 0.1 µM): 5.11
pIC50 (second compound 0.316 µM): 5.17
pIC50 (second compound 1 µM): < 5.00
viability, T/C [1]: 113%
viability, T/C [2]: 100%
viability, T/C [3]: 96.6%
viability, T/C [4]: 118%
viability, T/C [5]: 93.2%
viability, T/C [6]: 38.8%
viability, T/C [7]: 94.2%
viability, T/C [8]: 104%
viability, T/C [9]: 118%
viability, T/C [10]: 98.3%
viability, T/C [11]: 89.4%
viability, T/C [12]: 51.7%
viability, T/C [13]: 96.1%
viability, T/C [14]: 113%
viability, T/C [15]: 95.3%
viability, T/C [16]: 88.9%
viability, T/C [17]: 101%
viability, T/C [18]: 34.6%
viability, T/C [19]: 98.9%
viability, T/C [20]: 92.2%
viability, T/C [21]: 92.4%
viability, T/C [22]: 92.5%
viability, T/C [23]: 98.6%
viability, T/C [24]: 37.1%
viability, T/C [25]: 88.1%
viability, T/C [26]: 89%
viability, T/C [27]: 84.3%
viability, T/C [28]: 89.6%
viability, T/C [29]: 83.1%
viability, T/C [30]: 32.7%
viability, T/C [31]: 69.2%
viability, T/C [32]: 81.7%
viability, T/C [33]: 94.8%
viability, T/C [34]: 66%
viability, T/C [35]: 77.8%
viability, T/C [36]: 52.3%

C[C@@H](NC(=O)c1ncnc(N)c1Cl)c1ncc(C(=O)Nc2cc(C(F)(F)F)c(Cl)cn2)s1 + CC(Nc1ccc2c(c1)OCCn1cc(N3C(=O)OCC3C(F)F)nc1-2)C(N)=O
pIC50 (second compound 0.00316 µM): < 5.00
pIC50 (second compound 0.01 µM): < 5.00
pIC50 (second compound 0.0316 µM): < 5.00
pIC50 (second compound 0.1 µM): < 5.00
pIC50 (second compound 0.316 µM): < 5.00
pIC50 (second compound 1 µM): < 5.00
viability, T/C [1]: 94.6%
viability, T/C [2]: 117%
viability, T/C [3]: 127%
viability, T/C [4]: 75.7%
viability, T/C [5]: 136%
viability, T/C [6]: 96.7%
viability, T/C [7]: 99.2%
viability, T/C [8]: 71.4%
viability, T/C [9]: 115%
viability, T/C [10]: 87.5%
viability, T/C [11]: 98.3%
viability, T/C [12]: 108%
viability, T/C [13]: 84.9%
viability, T/C [14]: 104%
viability, T/C [15]: 115%
viability, T/C [16]: 103%
viability, T/C [17]: 112%
viability, T/C [18]: 90.3%
viability, T/C [19]: 105%
viability, T/C [20]: 112%
viability, T/C [21]: 104%
viability, T/C [22]: 96.8%
viability, T/C [23]: 97.7%
viability, T/C [24]: 93%
viability, T/C [25]: 72.5%
viability, T/C [26]: 103%
viability, T/C [27]: 105%
viability, T/C [28]: 88.2%
viability, T/C [29]: 86.7%
viability, T/C [30]: 97.2%
viability, T/C [31]: 68.7%
viability, T/C [32]: 73.4%
viability, T/C [33]: 67.5%
viability, T/C [34]: 79.3%
viability, T/C [35]: 94.4%
viability, T/C [36]: 83.9%
